Literature values in US4405354A, “Elimination of odors from waste material” (priority 1980, dated 1983).
Where two headings read alike, the source gives them in different places.

For N [aqueous ammonia], the Kb (0 °C) is listed as 1.374 × 10^-5, the Kb (5 °C) is listed as 1.479 × 10^-5 and the Kb (10 °C) is listed as 1.570 × 10^-5. For the same compound, the Kb (15 °C) was 1.652 × 10^-5, the Kb (20 °C) was 1.710 × 10^-5 and the Kb (25 °C) was 1.774 × 10^-5. The Kb (30 °C) was 1.820 × 10^-5, the Kb (35 °C) was 1.849 × 10^-5 and the Kb (40 °C) was 1.862 × 10^-5. For the same compound, the Kb (45 °C) was 1.879 × 10^-5 and the Kb (50 °C) was 1.892 × 10^-5.
